Data on nine compounds can be found in US5877185A, “Synergistic compositions useful as anti-tumor agents” (priority 1995, dated 1999).

One series has as its system E ras cells. The series is described as follows: cytostatic and cytocidal activity. In kind it is cell-based, bovine. As to conditions: for cytostatic and cytocidal effects: at the concentrations given above; for IC50: Bos taurus, average of three trials. The text has this:
pADPRT ligands that oxidize CCHC zinc fingers are not unique inhibitors of pADPRT. […] Hakam et al., FEBS Lett. 193:1-4 (1991). These ligands bind non-covalently to the nicotinamide site and internal DNA-seeking domains of pADPRT. Bauer et al., manuscript in preparation (1994). In contrast, CCHC-oxidizing ligands also bind non-covalently to the nicotinamide site, but initially attack the F1 zinc finger oxidatively. Id. […] Id. […] U.S. Ser. No. 08/076,313 filed Jun. 11, 1993.
Each value is the average of three trials. Each trial deviated from the average by no more than twenty percent. […] Another isomer of the iodo-nitro-benzamide series, 2-iodo-4-nitrobenzamide had no effect at the concentrations given above.

A further series deals with MT-2 cells. As to the kind of experiment: effectiveness on human T-lymphoblastoid leukemia cells, MT-2. In kind it is cell-based. The settings on record: for IC50: Homo sapiens, MT2, concentration decreasing cell viability to 50% of control, 48 h incubation, read-out: I50; for LD100: zero viability after 48 hours of incubation. On the procedure:
(§1) IV. Effectiveness of 4-(halogen)-3-nitro-benzamide compounds as tested with human T-lymphoblastoid leukemia cell lines in culture.
(§2) Cells (MT-2 cells, or, in case of 3-fluoro-4-nitro-benzamide, CEM-4 cells) were seeded at a density of 0.1×10^5 /ml; the drugs were added at the time of seeding. The cultures were incubated at 37° C. in a 5% CO2 atmosphere and the cells numbers were monitored by hemacytometer counting in 24 hr intervals.

The next series concerns CEM-4 cells. The series is described as follows: effectiveness on human T-lymphoblastoid leukemia cells, CEM-4. The class given is cell-based. On the procedure:
as §1, §2

Series [1] has as its system L-1210 Murine Leukemia Cells. As to the kind of experiment: effect of nitroso- and nitro-compounds in L-1210 murine leukemia cells (suspension). In kind it is cell-based. As to conditions: drug exposure 18 hours. On the procedure: II. I50 and LD100 Values for Nitroso- and Nitro-Compounds in (A) Mammary Cancer Cells (monolayer cultures) and in (B) L-1210 Murine Leukemia Cells (suspension culture).
Cells were seeded at 5×10^4 to 2×10^5 /ml; drugs were added at the time of seeding; drug exposure was for 18 hours.

Another series concerns L-1210 cells. The series is described as follows: time course of cell killing alone and with BSO, L-1210. The class given is cell-based, murine. The settings on record: L-1210, 2-3 day period; 1 mM BSO. On the procedure: (§3) Molt 4-cells were seeded at a density of 0.05×10^6 cell/ml in the recommended growth medium in the absence or the presence of drugs as indicated. Cells were incubated at 37° C. in a 5% CO2 atmosphere and proliferation was monitored in 14 hr. by cell counting in a hemacytometer. .smallcircle., untreated control; .circle-solid., treated with 4 μM 4-iodo-3-nitrobenzoic acid; .gradient., treated with 1 mM BSO; .tangle-soliddn., treated with 4 μM-iodo-3-nitrobenzoic acid and 1 mM BSO; .quadrature., treated with 4 μM 4-INO2 BA; .box-solid., treated with 1 mM BSO; .gradient., treated with 4 μM INO2 BA and 1 mM BSO. L-1210 cells were seeded at a density of 0.05×10^6 cells/ml either from untreated stock suspensions or from 24-hr. pretreated (0.2×10^6 cells/ml) suspensions. .smallcircle., untreated control; .circle-solid., treated with […] NOBA; .gradient., treated with 1 mM BSO; .tangle-soliddn., 24-hr pretreatment with 1 mM BSO then treated with 4 μM NOBA.
(§4) A time course of the cell killings by 4-iodo-3-nitrobenzoic acid, INO2 BA and NOBA, each alone and in combination with BSO was obtained. Molt-4 cells were seeded at a density of 0.05×10^6 cells/ml in the recommended growth medium in the absence or presence of drugs as indicated in FIG. 3. Drugs were added to the wells immediately after seeding from 10-40 mM stock solution in DMSO. BSO was added from a 100 mM aqueous stock solution. Cells were incubated at 37° C. in a 5% CO2 atmosphere and proliferation was monitored in 14 hours by cell counting in a hemacytometer.

In the next series the test system is Molt-4 cells. The series is described as follows: time course of cell killing alone and with BSO, Molt-4. The class given is cell-based. The settings on record: Molt-4, 2-3 day period; 4 μM drug, 1 mM BSO. On the procedure: as §3, §4
For the next series, the system named is AA-2 leukemia cells. As to the kind of experiment: cytocidal effect in combination with ascorbate. On the procedure:
Because of the in vitro reactivity of the nitroso group of INOBA with both ascorbate and GSH, the apoptosis-inducing effect of NOBA with the action of the prodrug INO2 BA in the presence of ascorbate, added simultaneously with both drugs was compared.
AA-2 cells were seeded at a density of 0.2×10^6 cells/ml. Drugs and/or sodium ascorbate were added at the time of seeding, and cells were counted by hemacytometer after incubation (37° C., 5% CO^2) for 18 hr (Day 1) and for 42 hr (Day 2). Viability was evaluated by Trypan Blue exclusion.

In another series the test system is HIV-1 (LAV strain). As to the kind of experiment: in vitro anti-retroviral testing (HIV-1 inactivation) in human peripheral lymphocytes (PBL). The class given is cell-based. The protocol: Both 6-NOBP and NOBA were tested on viral growth of HIV-1 (LAV strain) in phytohemagglutinin-stimulated human peripheral lymphocytes (PBL). An HIV-1 stock having an infectivity titer of 100,000 TCID50 was incubated for 30 min. at 22° C. with either of the drugs. Control HIV samples, containing no drugs, were incubated in the same manner. […] At the end of this incubation cultures were assayed for productive infection by an immunoassay for HIV-1 antigens and by reverse transcriptase as described in McDougal et al., J. Immunol. Methods 76:171-183 (1985). Virus titers were expressed as percentile values (percent infected cultures) compared to the controls, containing HIV dilutions which were not preincubated with the C-nitroso drugs. In a separate series of experiments, HIV-1 dilutions and C-nitroso drugs (see upper abscissa) were not preincubated but were added simultaneously to lymphocytes in exactly the same concentrations as described previously (i.e., following preincubation) and viral growth monitored 9 days later.

Series [2] in a line: solubility and stability of nitro versus nitroso compound. In kind it is physicochemical.
Series [3] concerns normal bone marrow progenitor cells. As to conditions: tumoricidal concentrations; cited from earlier work.
For a further series, the system named is HIV-1 NC zinc fingers. As to conditions: isolated HIV-1 NC zinc fingers and intact HIV-1 virions; cited from earlier work.
A further series has as its system neutrophil granulocytes. As to conditions: tumoricidal concentrations; cited from earlier work.
Series [4] has as its system human immunodeficiency virus HIV-1. As to conditions: human lymphocytes; cited from earlier work.
Series [5] deals with leukemic and other malignant human cells. The settings on record: cited from earlier work.

Where two headings read alike, the source gives them in different places.

On to `NC(=O)c1ccc([N+](=O)[O-])cc1I` [2-iodo-4-nitrobenzamide], for which the “cytostatic and cytocidal effects” value with E ras cells is recorded as “no effect”.

As to `NC(=O)c1cc([N+](=O)[O-])ccc1I` [2-iodo-5-nitrobenzamide], the IC50 in the series on E ras cells (E ras cells, read-out: Cytostatic Effect I50) came to 12 µM; with E ras cells (with 0.8 mM BSO, read-out: Cytocidal Effect I50) it was 2 µM. Further, the “cytostatic and cytocidal effects” value with E ras cells was “more effective of the two isomers”.

For `NC(=O)c1ccc(Br)c([N+](=O)[O-])c1` [4-bromo-3-nitro-benzamide], in the series with MT-2 cells, the IC50 came to 120 µM and the LD100 turned out to be 290.

Turning to `NC(=O)c1ccc(Cl)c([N+](=O)[O-])c1` [4-chloro-3-nitro-benzamide], in the series on MT-2 cells, the IC50 came out at 130 µM and the LD100 is given as 300.

On to `NC(=O)c1ccc(F)c([N+](=O)[O-])c1` [4-fluoro-3-nitro-benzamide], for which the IC50 in the series on CEM-4 cells (Homo sapiens, concentration decreasing cell viability to 50% of control, read-out: I50) is 120 µM. Besides, the LD100 with CEM-4 cells (zero viability after 48 hours of incubation) is 280.

Turning to `O=C(O)c1ccc(I)c([N+](=O)[O-])c1` [4-iodo-3-nitrobenzoic acid], the I50 in series [1] is on record as 16 nanomoles/10^5 cells. The compound also showed an LD100 in [1] of 32 nanomoles/10^5 cells. The “effect on cell proliferation” value in the series with L-1210 cells and in the series on Molt-4 cells was “no significant effect” each time.

With `O=C1O[C@H]([C@@H](O)CO)C([O-])=C1O.[Na+]` [Ascorbate, sodium ascorbate, reference compound], the “effect on AA-2 leukemia cells by itself” value in the series with AA-2 leukemia cells (160 μM) is listed as “no effect”. In addition, the “cell number Day 1” value in the series on AA-2 leukemia cells (ascorbate 160 μM, 18 hr) turned out to be 480000 mL⁻¹. The “cell number Day 2” value in the series on AA-2 leukemia cells (ascorbate 160 μM, 42 hr) was determined as 900000 mL⁻¹.

For `O=c1ccc2cc([N+](=O)[O-])ccc2o1` [NO2 BP, 6-Nitro-1,2-benzopyrone], in series [1], the I50 was 35 nanomoles/10^5 cells and the LD100 was 80 nanomoles/10^5 cells. Also, the “inhibition of HIV-1 activity in human lymphocytes” value with HIV-1 (LAV strain) is reported as 52%. Besides, in the series with HIV-1 (LAV strain) (500 μM), the “TCID50 (calculated infectious titer after treatment)” value is given as 85,114 TCID50. At 500 µM the inhibition in the series on HIV-1 (LAV strain) (Human immunodeficiency virus 1, Lymphocyte) was 52.1%. For the same compound, the log reduction at 500 µM with HIV-1 (LAV strain) (Human immunodeficiency virus 1, Lymphocyte, 0.5 h, read-out: Decrease) came out at 0.32. The stability and solubility entry in [2] was “more stable and soluble than the active nitroso compound”.

Take `O=Nc1ccc2oc(=O)ccc2c1` [NOBP, 6-nitroso-1,2-benzopyrone]: in the series on HIV-1 (LAV strain) (100 μM), the “TCID50 (calculated infectious titer after treatment)” value is reported as 102 TCID50. In addition, the log reduction at 100 µM in the series with HIV-1 (LAV strain) (Human immunodeficiency virus 1, Lymphocyte, 0.5 h, 100 μM, of TCID50, read-out: Decrease) was 3.24. Moreover, the inhibition (in general, the drop in the measured response relative to a control, in per cent) at 100 µM in the series with HIV-1 (LAV strain) (Human immunodeficiency virus 1, Lymphocyte, 100 μM) was determined as 99.9%. Further, in series [3], the “effect on normal bone marrow progenitor cells” value is listed as “relatively harmless”. The zinc ejection entry with HIV-1 NC zinc fingers is reported as “eject zinc”. In addition, the “effect on superoxide formation by neutrophil granulocytes” value in the series with neutrophil granulocytes is on record as “relatively harmless”. Also, the stability and solubility result in [2] was “poorly soluble”. Further, the “inhibition of HIV-1 infection” value in series [4] is “inhibit infection”. In addition, the suppression of proliferation result in series [5] was “completely suppressed”.
